Among the data in patent publication US7803801B2, “Aminopyridine compounds having Syk inhibitory activity” (Japan Tobacco, Inc., priority 2005, dated 2010) are IC50 values, retold here.

In the test the target is GST-Syk Full Protein (human) (Homo sapiens, UniProt P43405). The test is described as follows: Syk kinase inhibition test (HTRF method). The format is biochemical. As for the experimental part:
Syk Kinase Inhibition Test (HTRF Method)
After the compounds were serially diluted with dimethylsulfoxide (DMSO), 10 μL of those 10-fold diluted with kinase buffer (20 mM HEPES pH 7.0, 10 mM MgCl2, 50 mM NaCl, 1 mM 2-ME, 0.05% BSA) was added to opti-plate HTRF-96 (Packard) (final DMSO concentration: 2%). 20 μL of a substrate solution (kinase buffer as mentioned above containing Syk Specific-Peptide Substrate Biot-EDPDYEWPSA-NH2 (Peptide Laboratory) 625 nM, 250 μM ATP (SIGMA) was added (final substrate concentration 250 nM, 100 μM ATP), and further 20 μL of an enzyme solution (kinase buffer as mentioned above containing GST-Syk Full Protein (human) 16 nM) (final concentration 6.4 nM) was added and the mixture was immediately stirred with a plate shaker to start enzyme reaction. After reacted at room temperature (20 to 25° C.) for 30 minutes, the enzyme reaction was terminated by adding 100 μL/well of a buffer for terminating and detecting the reaction (30 mM HEPES pH 7.0, 150 mM KF, 0.15% BSA, 0.075% Tween-20, 75 mM EDTA) containing HTRF reagent (5 μg/ml XL665-Streptavidin (CIS bio), 170 ng/ml Eu(K)-anti-PhosphoTyrosin, PT-66 (CIS bio)) (final concentration 20 mM HEPES pH 7.0, 100 mM KF, 0.1% BSA, 0.05% Tween-20, 50 mM EDTA). After allowed to stand still at room temperature for 1 hour, inhibitory effect of a compound against Syk kinase enzymatic activity was evaluated by measuring 665/620 fluorescence ratio to excitation light at 337 nm by ARVO (Wallac).

Where [1] appears, read: Tables 2-x, thiophene compounds B, read-out: sykHTRK ave IC50.
Where [2] appears, read: Tables 1-x, compounds A, read-out: sykHTRF ave IC50.
[3] abbreviates: HTRF, 100 μM ATP, 30 min room temperature, average, read-out: sykHTRF ave IC50.

SMILES strings stand for the structures. Where a name gives a salt, the structure may show the parent alone. Read-outs that look alike come from different tables or passages of the source.

With `Cc1ccnc(Nc2cccc(-c3ccc(CN4CCCc5ccc(C(=O)O)cc54)s3)n2)c1` [Compound B-110], under setting [1], the IC50 lay in the range of 100 to 1000 nM.

Take `Cc1ccnc(Nc2cccc(-c3cnc(N(C)C(C(=O)N4CCC(O)CC4)C(C)C)s3)n2)c1` (stereo not drawn) [Compound A-675]: under setting [2], the IC50 was 100 to 1000 nM.

Consider `Cc1ccnc(Nc2cccc(-c3cnc(N(Cc4ccccc4)[C@H]4CC[C@H](CC(=O)O)CC4)s3)n2)c1` [Compound A-624, [trans-4-(N-benzyl-N-{5-[6-(4-methylpyridin-2-ylamino)pyridin-2-yl]thiazol-2-yl}amino)cyclohexyl]acetic acid], for which the IC50 under setting [2] was less than 100 nM.

For `O=C(O)CC1CCN(c2ncc(-c3cccc(Nc4cc(C(F)(F)F)ccn4)n3)s2)CC1` [Compound A-635, (1-{5-[6-(4-trifluoromethylpyridin-2-ylamino)pyridin-2-yl]thiazol-2-yl}piperidin-4-yl)acetic acid dihydrochloride], under setting [2], the IC50 is less than 100 nM.

In the case of `CC(=CC(=O)O)CCCN(C)c1ncc(-c2cccc(Nc3cc(C(F)(F)F)ccn3)n2)s1` [Compound A-655, 3-methyl-6-(N-methyl-N-{5-[6-(4-trifluoromethylpyridin-2-ylamino)pyridin-2-yl]thiazol-2-yl}amino)hex-2-enoic acid dihydrochloride], the IC50 under setting [2] is less than 100 nM.

As to `Cc1ccnc(Nc2cccc(-c3cnc(N4CCC(CC(C)(C)O)CC4)s3)n2)c1` [Compound A-670], under setting [2], the IC50 was in the range of 100 to 1000 nM.

Consider `COC(=O)c1ccc(CCc2ncc(-c3cccc(Nc4cc(C)ccn4)n3)s2)cc1` [Compound A-149], for which the IC50 under setting [3] was more than 1000 nM.

Turning to `Cc1ccnc(Nc2cccc(-c3cnc(N4CCC(C(F)C(=O)O)CC4)s3)n2)c1` (stereo not drawn) [Compound A-684, fluoro-(1-{5-[6-(4-methylpyridin-2-ylamino)pyridin-2-yl]thiazol-2-yl}piperidin-4-yl)acetic acid], under setting [2], the IC50 was less than 100 nM.

As for `CC(=O)N1CCC(N(CCNC(=O)N(C)C)c2ncc(-c3cccc(Nc4cc(C)ccn4)n3)s2)CC1` [Compound A-523], the IC50 under setting [2] lay in the range of 100 to 1000 nM.

On to `Cc1ccnc(Nc2cccc(-c3ccc(CN(Cc4ccccc4)C(=O)CCC(=O)O)s3)n2)c1` [Compound B-126], for which the IC50 under setting [1] was in the range of 100 to 1000 nM.

Turning to `Cc1ccnc(Nc2cccc(-c3cnc(N(CCO)C4CCCCC4)s3)n2)c1` [Compound A-673], the half-inhibitory concentration (IC50) under setting [2] lay within 100 to 1000 nM.

Turning to `Cc1ccnc(Nc2cccc(-c3cnc(N(CC(N)=O)C(C)C)s3)n2)c1` [Compound A-663, 2-(N-isopropyl-N-{5-[6-(4-methylpyridin-2-ylamino)pyridin-2-yl]thiazol-2-yl}amino)acetamide], the IC50 under setting [2] is less than 100 nM.

Take `Cc1ccnc(Nc2cccc(-c3cnc(N4CCC(C(=O)N(CCO)CCO)CC4)s3)n2)c1` [Compound A-449]: the IC50 under setting [2] fell in the range of 100 to 1000 nM.

As to `Cc1ccnc(Nc2cccc(-c3cnc(N4CCc5cc(CC(=O)O)ccc5C4)s3)n2)c1` [Compound A-641, (2-{5-[6-(4-methylpyridin-2-ylamino)pyridin-2-yl]thiazol-2-yl}-1,2,3,4-tetrahydroisoquinolin-6-yl)acetic acid], the IC50 under setting [2] was less than 100 nM.

As for `Cc1ccnc(Nc2cccc(-c3ccc(CNCc4ccc(C(=O)O)cc4)s3)n2)c1` [Compound B-116, 4-[({5-[6-(4-methylpyridin-2-ylamino)pyridin-2-yl]thiophen-2-ylmethyl}amino)methyl]benzoic acid], the IC50 under setting [1] is less than 100 nM.

In the case of `Cc1ccnc(Nc2cccc(-c3cnc(N(C)CC(=O)O)s3)n2)c1` [Compound A-555], the IC50 under setting [2] lay within 100 to 1000 nM.

Regarding `Cc1cc(C)nc(Nc2cccc(-c3cnc(N4CCC(CC(=O)O)CC4)s3)n2)c1` [Compound A-623], the IC50 under setting [2] was in the range of 100 to 1000 nM.

Consider `COC(=O)c1cccc(CN(C)c2ncc(-c3cccc(Nc4cc(C)ccn4)n3)s2)c1` [Compound A-581], for which the IC50 under setting [2] was in the range of 100 to 1000 nM.

In the case of `Cc1ccnc(Nc2cccc(-c3cnc(N4CCN(CC(=O)OC(C)(C)C)C(=O)C4)s3)n2)c1` [Compound A-463], under setting [2], the concentration for half-maximal inhibition (IC50) lay within 100 to 1000 nM.

With `Cc1cccnc1Nc1cccc(-c2cnc([C@H](C)O)s2)n1` [Compound A-327], under setting [3], the IC50 was more than 1000 nM.

As for `COC(=O)N(CCCC(=O)O)Cc1ncc(-c2cccc(Nc3cc(C)ccn3)n2)s1` [Compound A-585], the IC50 under setting [2] fell in the range of 100 to 1000 nM.

For the compound `Cc1ccnc(Nc2cccc(-c3cnc(N(C)C4CCN(C(=O)NC5CCCCC5)CC4)s3)n2)c1` [Compound A-696], the IC50 under setting [2] fell in the range of 100 to 1000 nM.

Turning to `Cc1ccnc(Nc2cccc(-c3cnc(N4CCC(NC(=O)C5CCOCC5)CC4)s3)n2)c1` [Compound A-661], the IC50 under setting [2] is 100 to 1000 nM.

Consider `CNC(=O)C1CCC(N(C)c2ncc(-c3cccc(Nc4cc(C)ccn4)n3)s2)CC1` (stereo not drawn) [Compound A-492, N-methyl-4-(N′-methyl-N′-{5-[6-(4-methylpyridin-2-ylamino)pyridin-2-yl]thiazol-2-yl}amino)cyclohexanecarboxamide], for which, under setting [2], the half-maximal inhibitory concentration (IC50) was less than 100 nM.

As for `Cc1ccnc(Nc2cccc(-c3cnc(N4CCN(CC(=O)N(C)C)C(=O)C4)s3)n2)c1` [Compound A-467], under setting [2], the IC50 lay in the range of 100 to 1000 nM.

Regarding `C/C(=C\C(=O)O)c1ccc(-c2cccc(Nc3cc(C)ccn3)n2)s1` [Compound B-114], the half-maximal inhibitory concentration (IC50) under setting [1] is 100 to 1000 nM.

For the compound `CCC(C(=O)O)C1CCN(c2ncc(-c3cccc(Nc4cc(C)ccn4)n3)s2)CC1` (stereo not drawn) [Compound A-698, 2-(1-{5-[6-(4-methylpyridin-2-ylamino)pyridin-2-yl]thiazol-2-yl}piperidin-4-yl)butyric acid], under setting [2], the half-inhibitory concentration (IC50) is less than 100 nM.

In the case of `Cc1ccnc(Nc2cccc(-c3ccc(C(O)C(F)(F)C(=O)O)s3)n2)c1` (stereo not drawn) [Compound B-109, 2,2-difluoro-3-hydroxy-3-{5-[6-(4-methylpyridin-2-ylamino)pyridin-2-yl]thiophen-2-yl}propionic acid], the IC50 under setting [1] is less than 100 nM.

In the case of `O=C(O)C(F)C1CCN(c2ncc(-c3cccc(Nc4cnccn4)n3)s2)CC1` (stereo not drawn) [Compound A-715, fluoro-(1-{5-[6-(pyrazin-2-ylamino)pyridin-2-yl]thiazol-2-yl}piperidin-4-yl)acetic acid dihydrochloride], the IC50 under setting [2] is less than 100 nM.

On to `Cc1ccnc(Nc2cccc(-c3cnc(N4CCC[C@H]4C(=O)NCCO)s3)n2)c1` [Compound A-658, N-(2-hydroxyethyl)-(S)-1-{5-[6-(4-methylpyridin-2-ylamino)pyridin-2-yl]thiazol-2-yl}pyrrolidine-2-carboxamide], for which the IC50 under setting [2] was less than 100 nM.

With `Cc1ccnc(Nc2cccc(-c3cnc(N4CCC(=C(F)C(=O)O)CC4)s3)n2)c1` [Compound A-631, fluoro-(1-{5-[6-(4-methylpyridin-2-ylamino)pyridin-2-yl]thiazol-2-yl}piperidin-4-ylidene)acetic acid], the IC50 under setting [2] was less than 100 nM.

Consider `Cc1ccnc(Nc2cccc(-c3cnc(CN(C)CC(=O)N(C)C)s3)n2)c1` [Compound A-688], for which the IC50 under setting [2] is 100 to 1000 nM.

In the case of `O=C(O)CCC1CCN(c2ncc(-c3cccc(Nc4ccccn4)n3)s2)CC1` [Compound A-682], under setting [2], the IC50 was in the range of 100 to 1000 nM.

On to `CC(=O)N(Cc1ccc(C(=O)O)cc1)Cc1ccc(-c2cccc(Nc3cc(C)ccn3)n2)s1` [Compound B-119, 4-[(N-acetyl-N-{5-[6-(4-methylpyridin-2-ylamino)pyridin-2-yl]thiophen-2-ylmethyl}amino)methyl]benzoic acid], for which the IC50 under setting [1] is less than 100 nM.

Take `Cc1ccnc(Nc2cccc(-c3cnc(N4CCC(CCO)CC4)s3)n2)c1` [Compound A-677, 2-(1-{5-[6-(4-methylpyridin-2-ylamino)pyridin-2-yl]thiazol-2-yl}piperidin-4-yl)ethanol]: under setting [2], the concentration for half-maximal inhibition (IC50) is less than 100 nM.

For `CC(=O)NCCN(c1ncc(-c2cccc(Nc3cc(C)ccn3)n2)s1)C1CCN(C(C)=O)CC1` [Compound A-521], the IC50 under setting [2] was 100 to 1000 nM.

As to `CC(=O)N(Cc1ccc(C(=O)O)cc1)Cc1ncc(-c2cccc(Nc3cc(C)ccn3)n2)s1` [Compound A-709, 4-[(N-acetyl-N-{5-[6-(4-methylpyridin-2-ylamino)pyridin-2-yl]thiazol-2-ylmethyl}amino)methyl]benzoic acid], the IC50 under setting [2] is less than 100 nM.

`Cc1ccnc(Nc2cccc(-c3cnc([C@H](Cc4ccc(OCc5ccccc5)cc4)NC(=O)OC(C)(C)C)s3)n2)c1` [Compound A-85]: under setting [3], the IC50 was more than 1000 nM.

Consider `Cc1ccnc(Nc2cccc(-c3cnc(N4CCC[C@H]4C(=O)O)s3)n2)c1` [Compound A-527], for which the IC50 under setting [2] was 100 to 1000 nM.

For the compound `Cc1ccnc(Nc2cccc(-c3cnc(N(CC(=O)NCC(F)(F)F)C4CCCCC4)s3)n2)c1` [Compound A-665], the 50% inhibitory concentration (IC50) under setting [2] lay within 100 to 1000 nM.

On to `CC(C)(C(=O)O)C1CCN(c2ncc(-c3cccc(Nc4cc(CCO)ccn4)n3)s2)CC1` [Compound A-713, 2-[1-(5-{6-[4-(2-hydroxyethyl)pyridin-2-ylamino]pyridin-2-yl}thiazol-2-yl)piperidin-4-yl]-2-methylpropionic acid], for which the IC50 under setting [2] was less than 100 nM.

Regarding `Cc1ccnc(Nc2cccc(-c3ccc(C(=O)N4CCC(CC(=O)O)CC4)s3)n2)c1` [Compound B-113], under setting [1], the IC50 was in the range of 100 to 1000 nM.
